compound: CC(C)C[C@@H](C(=O)N[C@H](C(=O)OC1CCCC1)c1ccccc1)[C@H](O)C(=O)NO [Tosedostat] + O=C(CCCCCCC(=O)Nc1ccccc1)NO [Vorinostat] (partner 1 µM); test: relative viability (nuclei count vs DMSO), 5 days (fraction); higher = more cells survive; conditions: first compound 0.02 µM
Summary of the method: (§1)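 Lung cancer cell lines, seeded in 1536-well plates, were treated the following day by pin tool with a single drug or with five library-drug doses (not always all listed) in √10 steps on top of a fixed anchor-drug dose. Cells were fixed and nuclei stained in one step after 5 days, and nuclei were counted. Relative viability is the nuclei count for treated wells divided by that for vehicle wells, reported as medians of duplicate plates.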

Cell Line | relative viability
NCI-H522 | 1.12
SK-LU-1 | 0.897
NCI-H2087 | 0.718
NCI-H596 | 0.731
NCI-H1355 | 0.654
SW 1573 | 0.984
LCLC-103H | 0.787
NCI-H727 | 1.18
NCI-H2405 | 1.06
EMC-BAC-2 | 0.605
NCI-H23 | 0.646
HCC-366 | 0.426
NCI-H1755 | 0.912
NCI-H838 | 0.772
LK-2 | 0.34
NCI-H2347 | 0.496
NCI-H2342 | 0.851

Cell Line | relative viability
SK-MES-1 | 1.13
H3255 | 0.759
COR-L23 | 0.57
COR-L 105 | 0.92
IA-LM | 1.09
LU99A | 0.573
ChaGo-K-1 | 0.803
NCI-H2170 | 0.923
NCI-H460 | 0.83
HOP-62 | 0.819
HCC-44 | 1.26
SW 900 | 0.37
LXF-289 | 0.818
BEN | 0.645
HARA | 1.35
NCI-H1648 | 0.316
HCC-78 | 0.472

same assay, conditions: first compound 0.06325 µM

Cell Line | relative viability
NCI-H522 | 0.897
SK-LU-1 | 0.721
NCI-H2087 | 0.667
NCI-H596 | 0.706
NCI-H1355 | 0.631
SW 1573 | 0.718
LCLC-103H | 0.773
NCI-H727 | 1.26
NCI-H2405 | 1.12
EMC-BAC-2 | 0.713
NCI-H23 | 0.52
HCC-366 | 0.305
NCI-H1755 | 0.795
NCI-H838 | 0.732
LK-2 | 0.364
NCI-H2347 | 0.451
NCI-H2342 | 0.79

Cell Line | relative viability
SK-MES-1 | 1.03
H3255 | 0.752
COR-L23 | 0.454
COR-L 105 | 0.825
IA-LM | 0.844
LU99A | 0.583
ChaGo-K-1 | 0.754
NCI-H2170 | 0.786
NCI-H460 | 0.708
HOP-62 | 0.516
HCC-44 | 1.07
SW 900 | 0.35
LXF-289 | 0.716
BEN | 0.602
HARA | 0.531
NCI-H1648 | 0.661
HCC-78 | 0.42

same assay, conditions: first compound 0.2 µM

Cell Line | relative viability
NCI-H522 | 0.954
SK-LU-1 | 0.717
NCI-H2087 | 0.66
NCI-H596 | 0.816
NCI-H1355 | 0.705
SW 1573 | 0.81
LCLC-103H | 0.761
NCI-H727 | 1.1
NCI-H2405 | 0.955
EMC-BAC-2 | 0.471
NCI-H23 | 0.707
HCC-366 | 0.394
NCI-H1755 | 0.732
NCI-H838 | 0.808
LK-2 | 0.24
NCI-H2347 | 0.681
NCI-H2342 | 0.75

Cell Line | relative viability
SK-MES-1 | 0.963
H3255 | 0.799
COR-L23 | 0.38
COR-L 105 | 1.1
IA-LM | 0.791
LU99A | 0.445
ChaGo-K-1 | 0.771
NCI-H2170 | 0.963
NCI-H460 | 0.676
HOP-62 | 0.612
HCC-44 | 1.09
SW 900 | 0.488
LXF-289 | 0.822
BEN | 0.678
HARA | 0.544
NCI-H1648 | 0.553
HCC-78 | 0.452

same assay, conditions: first compound 0.6325 µM

Cell Line | relative viability
NCI-H522 | 0.918
SK-LU-1 | 0.677
NCI-H2087 | 0.735
NCI-H596 | 0.692
NCI-H1355 | 0.543
SW 1573 | 0.671
LCLC-103H | 0.776
NCI-H727 | 0.886
NCI-H2405 | 0.841
EMC-BAC-2 | 0.408
NCI-H23 | 0.502
HCC-366 | 0.386
NCI-H1755 | 0.768
NCI-H838 | 0.833
LK-2 | 0.266
NCI-H2347 | 0.498
NCI-H2342 | 0.702

Cell Line | relative viability
SK-MES-1 | 1.1
H3255 | 0.608
COR-L23 | 0.343
COR-L 105 | 0.785
IA-LM | 0.899
LU99A | 0.388
ChaGo-K-1 | 0.717
NCI-H2170 | 0.724
NCI-H460 | 0.699
HOP-62 | 0.561
HCC-44 | 1.04
SW 900 | 0.515
LXF-289 | 0.703
BEN | 0.761
HARA | 0.377
NCI-H1648 | 0.365
HCC-78 | 0.501

same assay, conditions: first compound 2 µM

Cell Line | relative viability
NCI-H522 | 0.916
SK-LU-1 | 0.717
NCI-H2087 | 0.667
NCI-H596 | 0.616
NCI-H1355 | 0.604
SW 1573 | 0.614
LCLC-103H | 0.784
NCI-H727 | 0.683
NCI-H2405 | 0.798
EMC-BAC-2 | 0.323
NCI-H23 | 0.51
HCC-366 | 0.352
NCI-H1755 | 0.637
NCI-H838 | 0.87
LK-2 | 0.251
NCI-H2347 | 0.575
NCI-H2342 | 0.843

Cell Line | relative viability
SK-MES-1 | 1
H3255 | 0.783
COR-L23 | 0.399
COR-L 105 | 0.759
IA-LM | 0.878
LU99A | 0.381
ChaGo-K-1 | 0.62
NCI-H2170 | 0.777
NCI-H460 | 0.714
HOP-62 | 0.372
HCC-44 | 1.07
SW 900 | 0.568
LXF-289 | 0.771
BEN | 0.888
HARA | 0.295
NCI-H1648 | 0.354
HCC-78 | 0.486

compound: CC(C)C[C@@H](C(=O)N[C@H](C(=O)OC1CCCC1)c1ccccc1)[C@H](O)C(=O)NO [Tosedostat] + CCNC(=O)c1noc(-c2cc(C(C)C)c(O)cc2O)c1-c1ccc(CN2CCOCC2)cc1 [Luminespib] (partner 0.01 µM); test: as above; conditions: first compound 0.02 µM
Summary of the method: as §1

Cell Line | relative viability
NCI-H522 | 1.29
NCI-H1623 | 0.51
SK-LU-1 | 0.213
NCI-H1792 | 0.427
NCI-H2087 | 0.181
NCI-H596 | 1.07
NCI-H1355 | 0.699
SW 1573 | 0.219
LCLC-103H | 1.04
NCI-H727 | 0.305
NCI-H2405 | 0.8
EMC-BAC-2 | 1.26
NCI-H23 | 0.233
NCI-H1755 | 0.595
NCI-H838 | 0.323
LK-2 | 0.175
NCI-H2347 | 0.421

Cell Line | relative viability
NCI-H2342 | 0.686
SK-MES-1 | 0.813
H3255 | 1.02
COR-L23 | 0.792
COR-L 105 | 0.693
LU99A | 0.316
ChaGo-K-1 | 0.648
NCI-H2170 | 0.819
NCI-H460 | 0.0336
HOP-62 | 1.01
HCC-44 | 1.29
SW 900 | 0.175
LXF-289 | 0.703
BEN | 0.467
HARA | 0.683
NCI-H1563 | 0.575

same assay, conditions: first compound 0.06325 µM

Cell Line | relative viability
NCI-H522 | 1.27
NCI-H1623 | 0.622
SK-LU-1 | 0.211
NCI-H1792 | 0.356
NCI-H2087 | 0.158
NCI-H596 | 1.26
NCI-H1355 | 0.782
SW 1573 | 0.215
LCLC-103H | 0.932
NCI-H727 | 0.513
NCI-H2405 | 0.809
EMC-BAC-2 | 1.06
NCI-H23 | 0.203
NCI-H1755 | 0.512
NCI-H838 | 0.284
LK-2 | 0.21
NCI-H2347 | 0.425

Cell Line | relative viability
NCI-H2342 | 0.732
SK-MES-1 | 0.813
H3255 | 0.807
COR-L23 | 0.729
COR-L 105 | 0.726
LU99A | 0.245
ChaGo-K-1 | 0.598
NCI-H2170 | 0.637
NCI-H460 | 0.0335
HOP-62 | 0.894
HCC-44 | 0.987
SW 900 | 0.182
LXF-289 | 0.599
BEN | 0.387
HARA | 0.554
NCI-H1563 | 0.52

same assay, conditions: first compound 0.2 µM

Cell Line | relative viability
NCI-H522 | 1.23
NCI-H1623 | 0.607
SK-LU-1 | 0.217
NCI-H1792 | 0.433
NCI-H2087 | 0.273
NCI-H596 | 1.04
NCI-H1355 | 0.779
SW 1573 | 0.456
LCLC-103H | 1.04
NCI-H2405 | 0.838
EMC-BAC-2 | 1.17
NCI-H23 | 0.22
NCI-H1755 | 0.512
NCI-H838 | 0.308
LK-2 | 0.167
NCI-H2347 | 0.594

Cell Line | relative viability
NCI-H2342 | 0.806
SK-MES-1 | 0.898
H3255 | 0.906
COR-L23 | 0.687
COR-L 105 | 0.835
LU99A | 0.337
ChaGo-K-1 | 0.836
NCI-H2170 | 0.612
NCI-H460 | 0.03
HOP-62 | 0.925
HCC-44 | 0.985
SW 900 | 0.19
LXF-289 | 0.687
BEN | 0.264
HARA | 0.766
NCI-H1563 | 0.5

same assay, conditions: first compound 0.6325 µM

Cell Line | relative viability
NCI-H522 | 1.41
NCI-H1623 | 0.538
SK-LU-1 | 0.2
NCI-H1792 | 0.802
NCI-H2087 | 0.229
NCI-H596 | 0.893
NCI-H1355 | 0.688
SW 1573 | 0.411
LCLC-103H | 0.998
NCI-H727 | 0.427
NCI-H2405 | 0.786
EMC-BAC-2 | 1.15
NCI-H23 | 0.237
NCI-H1755 | 0.578
NCI-H838 | 0.389
LK-2 | 0.221
NCI-H2347 | 0.417

Cell Line | relative viability
NCI-H2342 | 0.859
SK-MES-1 | 0.789
H3255 | 0.683
COR-L23 | 0.698
COR-L 105 | 0.733
LU99A | 0.277
ChaGo-K-1 | 0.572
NCI-H2170 | 0.592
NCI-H460 | 0.0417
HOP-62 | 0.919
HCC-44 | 0.957
SW 900 | 0.17
LXF-289 | 0.732
BEN | 0.435
HARA | 0.481
NCI-H1563 | 0.648

same assay, conditions: first compound 2 µM

Cell Line | relative viability
NCI-H522 | 1.27
NCI-H1623 | 0.607
SK-LU-1 | 0.188
NCI-H1792 | 0.935
NCI-H2087 | 0.21
NCI-H596 | 0.938
NCI-H1355 | 0.648
SW 1573 | 0.277
LCLC-103H | 0.9
NCI-H727 | 0.254
NCI-H2405 | 0.79
EMC-BAC-2 | 0.986
NCI-H23 | 0.207
NCI-H1755 | 0.415
NCI-H838 | 0.355
LK-2 | 0.214

From the supplement of paper PMC10307832
